Assay [1] has as its system meprin α. To be noted: cited from earlier work.
For assay [2], the system named is meprin β. To be noted: cited from earlier work.
A further assay concerns MMP and ADAM. To be noted: cited from earlier work; for effect on MMP and ADAM activity: 200 µM inhibitor.
Assay [3] concerns the target T1, meprin α (Homo sapiens, UniProt Q16819).
T1 sequence (Q16819 66-593 limits assumed): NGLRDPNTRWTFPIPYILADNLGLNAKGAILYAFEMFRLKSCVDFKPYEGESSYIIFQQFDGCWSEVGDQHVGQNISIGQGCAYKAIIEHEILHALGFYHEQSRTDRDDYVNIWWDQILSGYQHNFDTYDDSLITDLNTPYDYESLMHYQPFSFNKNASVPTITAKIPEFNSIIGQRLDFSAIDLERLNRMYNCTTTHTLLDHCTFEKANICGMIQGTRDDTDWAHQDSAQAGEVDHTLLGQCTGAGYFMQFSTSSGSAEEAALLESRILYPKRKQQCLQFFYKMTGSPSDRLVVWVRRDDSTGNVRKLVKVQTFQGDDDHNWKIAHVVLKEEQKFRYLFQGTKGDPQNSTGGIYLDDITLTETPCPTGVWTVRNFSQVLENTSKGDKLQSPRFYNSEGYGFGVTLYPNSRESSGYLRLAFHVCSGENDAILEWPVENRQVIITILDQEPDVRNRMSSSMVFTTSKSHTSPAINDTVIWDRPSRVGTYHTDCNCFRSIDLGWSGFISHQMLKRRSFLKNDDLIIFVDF
The experiment in a line: Meprin α assay, fluorogenic substrate (Mca)-YVADAPK-(K-ε-Dnp), 384 and 1536 well plate formats. It is filed as biochemical. An excerpt:
(§1) The meprin α and meprin β assays, which utilize the substrates (Mca)-YVADAPK-(K-ε-Dnp) and (Mca)-EDEDED-(K-ε-Dnp), respectively, have been described previously. To enable an ultra-high-throughput screening (uHTS) campaign, we proceeded to miniaturize both assays to 1536 well plate format (wpf). First, we recapitulated the assays in 1536 well plate using reagents at the same concentrations as in 384 well plate format assays by scaling the volume down by the factor of 2.5.
(§2) Both assays followed the same general protocol. A 5 µL measure of 2 × enzyme solution (2.6 and 0.1 nM for meprin α and meprin β, respectively) in assay buffer (50 mM Hepes, 0.01% Brij-35, pH 7.5) was added to solid bottom black 384 low volume plates (Nunc, cat# 264705). Next, 75 nL of test compounds or pharmacological control (actinonin or NFF449) were added to corresponding wells using a 384-pin tool device (V&P Scientific, San Diego, CA, USA). After 30 min incubation at RT, the reactions were started by addition of 5 µL of 2 × solutions of substrates (20 µM, mepin α substrate Mca-YVADAPK-K(Dnp) or meprin β substrate Mca-EDEDED-K(Dnp)). Reactions were incubated at RT for 1 h, after which the fluorescence was measured using the Synergy H4 multimode microplate reader (Biotek Instruments) (λexcitation = 324 nm, λemission = 390 nm).
(§3) Both assays followed the same general protocol. A 2 µL portion of 2 × enzyme solution (1.3 and 0.0125 nM for meprin α and meprin β, respectively) in assay buffer (50 mM Hepes, 0.01% Brij-35, pH 7.5) was added to solid bottom black 1536 low volume plates (Corning cat# 7261). Next, 30 nL of test compounds or pharmacological control (actinonin or NFF449) was added to corresponding wells using a 1536 pin tool device (V&P Scientific, San Diego). After 30 min incubation at RT, the reactions were started by addition of 2 µL of 2x solutions of substrates (20 µM, meprin α substrate Mca-YVADAPK-K(Dnp) or meprin β substrate Mca-EDEDED-K(Dnp)). Reactions were incubated at RT for 1 h, after which the fluorescence was measured using the Viewlux multimode microplate reader (Perkin Elmer) (λexcitation = 324 nm, λemission = 390 nm).
(§4) The miniaturized 1536-well plate format meprin α and meprin β assays were used to screen a collection of approximately 650,000 compounds (The Scripps Research library, La Jolla, CA, USA) on the automated Kalypsys/GNF platform at The Scripps Research Molecular Screening Center (SRMSC, Jupiter, FL, USA: http://hts.florida.scripps.edu/). Both uHTS campaigns were run separately but in a similar manner. Briefly, the first step was the primary screen of all test compounds as singlicates against the meprin α and meprin β target at a final concentration of 7.0 μM. Next, compounds selected as primary hits were cherry-picked and retested in triplicate against the primary screen target and its antitarget (meprin α for the meprin β screening effort, and vice versa) at a same final concentration of 7.0 μM. The additional counter screen assays against related metzincins (MMP-8, MMP-14, and ADAM10) were performed in triplicate at a final concentration of 7.0 μM. The final step was the titration of selected hits as 10-point, 1:3 serial dilutions in both the target and antitarget assay, starting at a final nominal concentration of 17 μM. […] Wells treated with DMSO only were used as negative controls and 0% inhibition reference. […] All data generated during this effort were uploaded to the SRMSC’s institutional screening database (Assay Explorer, Symyx). Sample to background (S/B) ratios, as well as Z and Z’ values, were calculated on a per plate basis as described 14. Curve fitting and resulting IC50 determinations were performed as previously reported.

In assay [4] the target is T2, meprin β (Homo sapiens, UniProt Q16820).
T2 sequence (Q16820 62-594 limits assumed): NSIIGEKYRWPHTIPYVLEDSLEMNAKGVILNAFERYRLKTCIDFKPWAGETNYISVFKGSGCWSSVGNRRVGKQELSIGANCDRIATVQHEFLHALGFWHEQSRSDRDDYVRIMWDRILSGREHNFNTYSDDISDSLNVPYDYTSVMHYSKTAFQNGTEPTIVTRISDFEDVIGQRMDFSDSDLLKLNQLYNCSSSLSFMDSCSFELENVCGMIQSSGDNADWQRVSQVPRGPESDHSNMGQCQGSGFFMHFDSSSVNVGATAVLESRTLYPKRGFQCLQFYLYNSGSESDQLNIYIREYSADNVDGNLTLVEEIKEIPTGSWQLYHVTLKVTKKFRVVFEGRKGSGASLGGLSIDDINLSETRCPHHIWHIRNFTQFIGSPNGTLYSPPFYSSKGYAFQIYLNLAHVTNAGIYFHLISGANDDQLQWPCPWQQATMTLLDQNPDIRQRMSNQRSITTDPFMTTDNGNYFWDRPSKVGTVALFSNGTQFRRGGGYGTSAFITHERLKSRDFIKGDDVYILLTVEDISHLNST
Put plainly: Meprin β assay, fluorogenic substrate (Mca)-EDEDED-(K-ε-Dnp), 384 and 1536 well plate formats. To be noted: read-out: IC50. It is filed as biochemical.
Text: as §1, §2, §3, §4

Assay [5] addresses T1, meprin α. The experiment in a line: Kinetic parameters of meprin α mediated proteolysis of its substrate. The assay is classed as biochemical. To be noted: proteolysis by meprin α, 25 °C. As for the experimental part: Next, we performed substrate optimization to achieve balanced assay conditions defined as [S]/KM = 1 [19]. In order to do that, we first determined kinetic parameters of proteolysis of meprin α and meprin β substrates by the respective enzymes (Figure 4A,B). […] To optimize substrate concentrations, both assays were run for 90 min at three different substrate concentrations (10, 5, and 2.5 µM) which included the concentration at which the assays were recapitulated in 1536 wpf (10 µM for both meprin α and meprin β) and the concentration approximating [S]/KM = 1 condition (2.5 µM). Enzyme concentrations were fixed at 1.3 nM for meprin α and 0.0125 nM for meprin β. […]
Substrate stock solutions were prepared at various concentrations in HTS assay buffer (50 mM Hepes, 0.01% Brij-35, pH 7.5). […] Fluorescence was measured on a multimode microplate reader Synergy H1 (Biotek Instruments, Winooski, VT, USA) using λexcitation = 324 nm and λemission = 393 nm. Rates of hydrolysis were obtained from plots of fluorescence versus time, using data points from only the linear portion of the hydrolysis curve. The slope from these plots was divided by the fluorescence change corresponding to complete hydrolysis and then multiplied by the substrate concentration to obtain rates of hydrolysis in units of μM/s. […]

Each structure is given as a SMILES string. Where two headings read alike, the source gives them in different places. Peptide text beside a SMILES is read from it. * marks the point of attachment. Dnp = O=[N+]([O-])c1ccc(*)c([N+](=O)[O-])c1; Mca = COc1ccc2c(CC(=O)*)cc(=O)oc2c1

Regarding `O=C(CN(Cc1cccc(C(=O)O)c1)S(=O)(=O)c1cccc(C(=O)O)c1)NO` [Compound 11g], the half-maximal inhibitory concentration (IC50) in the assay with meprin α [1] (read-out: IC50 meprin α) was 2740 nM; in the assay with meprin β [2] (read-out: IC50 meprin β), 60 nM. The “selectivity against meprin α” value in the assay with meprin β [2] is given as 46 fold. Moreover, in the assay on MMP and ADAM, the “selectivity against adamalysins and matrixins” value was “good selectivity”.

Turning to `O=C(CCN(CCc1ccc2c(c1)OCO2)CCc1ccc2c(c1)OCO2)NO` [Compound 10e], the “selectivity against meprin β (Selectivity Fold)” value in the assay on meprin α [1] is on record as 19 fold. Further, the IC50 in the assay with meprin α [1] (read-out: Meprin α IC50) was 400 nM; with meprin β [2] (read-out: Meprin β IC50), 7590 nM.

On to `CCCCC[C@H](CC(=O)NO)C(=O)N[C@H](C(=O)N1CCC[C@H]1CO)C(C)C` [Actinonin, actinonin], for which the increased apparent potency at meprin α [3] (2.5 µM substrate condition) is recorded as 2 fold. Moreover, the IC50 on meprin α [3] (1536 wpf, 1.3 nM enzyme, substrate 2.5uM, time 30 min, read-out: Actinonin IC50) turned out to be 3 nM; on meprin α [3] (1536 wpf, 1.3 nM enzyme, substrate 2.5uM, time 60 min, read-out: Actinonin IC50) it was 3.4 nM; on meprin α [3] (1536 wpf, 1.3 nM enzyme, substrate 5uM, time 30 min, read-out: Actinonin IC50), 3.2 nM; on meprin α [3] (1536 wpf, 1.3 nM enzyme, substrate 10uM, time 30 min, read-out: Actinonin IC50), 5.4 nM; on meprin α [3] (1536 wpf, 1.3 nM enzyme, substrate 10uM, time 60 min, read-out: Actinonin IC50), 6.4 nM; at meprin α [3] (1536 wpf, 1.3 nM enzyme, substrate 10uM, time 90 min, read-out: Actinonin IC50), 6.9 nM. Further, the concentration for half-maximal inhibition (IC50) at meprin α [3] (1536 wpf, enzyme 0.32nM, time 30 min, read-out: Actinonin IC50) was determined as 5.18 nM; at meprin α [3] (1536 wpf, enzyme 0.32nM, time 60 min, read-out: Actinonin IC50), 5.54 nM; at meprin α [3] (1536 wpf, enzyme 0.32nM, time 90 min, read-out: Actinonin IC50) it was 5.83 nM; at meprin α [3] (1536 wpf, enzyme 0.65nM, time 30 min, read-out: Actinonin IC50), 4.11 nM; on meprin α [3] (1536 wpf, enzyme 0.65nM, time 60 min, read-out: Actinonin IC50), 4.99 nM; at meprin α [3] (1536 wpf, enzyme 0.65nM, time 90 min, read-out: Actinonin IC50), 5.2 nM. Further, the IC50 was 4.84 nM on meprin α [3] (1536 wpf, enzyme 1.3nM, time 30 min, read-out: Actinonin IC50); 5.94 nM at meprin α [3] (1536 wpf, enzyme 1.3nM, time 60 min, read-out: Actinonin IC50); 6.33 nM on meprin α [3] (1536 wpf, enzyme 1.3nM, time 90 min, read-out: Actinonin IC50); 11 nM on meprin α [3] (Meprin α 384 wpf, read-out: IC50); 5.7 nM at meprin α [3] (Meprin α 1536 wpf, read-out: IC50); 2.9 ± 0.12 nM at meprin α [3] (control compound in primary HTS campaign, n = 11 plates, read-out: IC50). In addition, the IC50 was 22000 nM at meprin β [4] (Meprin β 384 wpf) and 9750 nM on meprin β [4] (Meprin β 1536 wpf).

As to `O=C(CN(Cc1ccc(F)c(O)c1F)Cc1ccc(F)c(O)c1F)NO` [Compound 8h], the IC50 in the assay with meprin α [1] (read-out: IC50 meprin α) was 626 nM; in the assay on meprin β [2] (read-out: IC50 meprin β), 23 nM. Further, the “selective against meprin α” value in the assay with meprin β [2] is given as 27 fold. Further, the “effect on MMP and ADAM activity” value in the assay with MMP and ADAM is on record as “only limited effect”.

Regarding `COc1ccc2c(CC(=O)N[C@@H](Cc3ccc(O)cc3)C(=O)N[C@H](C(=O)N[C@@H](C)C(=O)N[C@@H](CC(=O)O)C(=O)N[C@@H](C)C(=O)N3CCC[C@H]3C(=O)N[C@@H](CCCCN)C(=O)N[C@@H](CCCCNc3ccc([N+](=O)[O-])cc3[N+](=O)[O-])C(N)=O)C(C)C)cc(=O)oc2c1` [meprin α substrate, (Mca)-YVADAPK-(K-ε-Dnp)] (Mca-YVADAPKK(Dnp)-NH2), the Km at meprin α [5] came to 2.4 ± 0.3 µM.

As for `O=C(CN(Cc1ccc(Cl)c(O)c1F)Cc1ccc(Cl)c(O)c1F)NO` [Compound 8i], the half-inhibitory concentration (IC50) was 368 nM with meprin α [1] (read-out: IC50 meprin α) and 24 nM in the assay on meprin β [2] (read-out: IC50 meprin β). In addition, in the assay on meprin β [2], the “selective against meprin α” value is given as 15 fold. For the same compound, the “effect on MMP and ADAM activity” value in the assay on MMP and ADAM is on record as “only limited effect”.

For `O=C(CCN(CCc1ccc2c(c1)OCCO2)CCc1ccc2c(c1)OCCO2)NO` [Compound 10d], in the assay with meprin α [1], the “selectivity against meprin β (Selectivity Fold)” value is recorded as 18 fold. Also, the IC50 with meprin α [1] (read-out: Meprin α IC50) was 160 nM; in the assay with meprin β [2] (read-out: Meprin β IC50), 2950 nM.

On to `Cc1nc(/N=N/c2cc(S(=O)(=O)O)c3cc([N+](=O)[O-])cc(S(=O)(=O)O)c3c2)c(COP(=O)(O)O)c(C=O)c1O` [PPNDS], for which, on meprin β [2], the Ki was 8 nM.

For orientation: IC50 means the concentration at which inhibition is half-maximal. As a reminder, the Km is the substrate concentration at which the rate is half of its maximum. Usually Ki stands for the equilibrium dissociation constant of an inhibitor or competing ligand from its target.

The values above are taken from PMC8000592, “Discovery and Optimization of Selective Inhibitors of Meprin α (Part I)” (Pharmaceuticals, 2021).
